Experimental data from ChEMBL document CHEMBL1201862, “PubChem BioAssay data set” (2004).
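A five-concentration, 48-hour dose response in 96-well plates underlies each endpoint, interpolated linearly between surrounding concentrations. The concentration for 50% growth inhibition is given as GI50.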 The source made the active and inactive calls. No stated cut-off is given here; in the data, active = GI50 up to about 1.1 µM and inactive = higher.

Columns and labels:
Assay in all cases: NCI-60 cell line screen, 48 h
NCI-H226 = test system: NCI-H226
A498 = test system: A498
HT-29 = test system: HT-29
MCF7 = test system: MCF7
NCI-H522 = test system: NCI-H522
KM12 = test system: KM12
SK-MEL-2 = test system: SK-MEL-2
MDA-MB-231 = test system: MDA-MB-231
RXF 393 = test system: RXF 393
LOX IMVI = test system: LOX IMVI
SK-MEL-28 = test system: SK-MEL-28
A549 = test system: A549
Malme-3M = test system: Malme-3M
786-0 = test system: 786-0
UACC-257 = test system: UACC-257
HOP-62 = test system: HOP-62
NCI-H460 = test system: NCI-H460
MOLT-4 = test system: MOLT-4
HCT-15 = test system: HCT-15
OVCAR-4 = test system: OVCAR-4

Row | SMILES | GI50 (NCI-H226) | GI50 (A498) | GI50 (HT-29) | GI50 (MCF7) | GI50 (NCI-H522) | GI50 (KM12) | GI50 (SK-MEL-2) | GI50 (MDA-MB-231) | GI50 (RXF 393) | GI50 (LOX IMVI) | GI50 (SK-MEL-28) | GI50 (A549) | GI50 (Malme-3M) | GI50 (786-0) | GI50 (UACC-257) | GI50 (HOP-62) | GI50 (NCI-H460) | GI50 (MOLT-4) | GI50 (HCT-15) [µM] | GI50 (OVCAR-4)
1 | COc1ccc(-c2ncnc(-c3ccc(OC)c(OC)c3)n2)cc1OC | > 100 µM (inactive) | > 100 µM (inactive) | > 100 µM (inactive) | > 100 µM (inactive) | > 100 µM (inactive) | > 100 µM (inactive) | > 100 µM (inactive) | > 100 µM (inactive) | 36.5 µM (inactive) | > 100 µM (inactive) | > 100 µM (inactive) | > 100 µM (inactive) | > 100 µM (inactive) | > 100 µM (inactive) | > 100 µM (inactive) | > 100 µM (inactive) |  |  |  | 
2 | Cc1cc2nnn(C3CCCO3)c2cc1C (stereo unspecified) | > 100 µM (inactive) | > 100 µM (inactive) | > 100 µM (inactive) | > 100 µM (inactive) | > 100 µM (inactive) |  | > 100 µM (inactive) | > 100 µM (inactive) | > 100 µM (inactive) |  |  | > 100 µM (inactive) | > 100 µM (inactive) | > 100 µM (inactive) | > 100 µM (inactive) | > 100 µM (inactive) | > 100 µM (inactive) | > 100 µM (inactive) | > 100 | 
3 | CCOC(=O)c1sc2c(c1O)c(=O)n(-c1ccccc1)c(=S)n2-c1ccccc1 | > 100 µM (inactive) |  | 80.5 µM (inactive) | 67.6 µM (inactive) | 46.6 µM (inactive) | 46.7 µM (inactive) | > 100 µM (inactive) | > 100 µM (inactive) | > 100 µM (inactive) | > 100 µM (inactive) | > 100 µM (inactive) | 55.3 µM (inactive) | > 100 µM (inactive) | > 100 µM (inactive) | > 100 µM (inactive) |  | > 100 µM (inactive) |  | 78 | > 100 µM (inactive)
4 | Clc1cccc(/C=c2\nc(-c3ccccc3)n3c2nc2ccccc23)c1 | > 100 µM (inactive) | > 100 µM (inactive) | > 100 µM (inactive) | > 100 µM (inactive) |  | > 100 µM (inactive) | > 100 µM (inactive) | 42.7 µM (inactive) | 31.9 µM (inactive) | > 100 µM (inactive) | > 100 µM (inactive) | > 100 µM (inactive) | > 100 µM (inactive) | > 100 µM (inactive) | > 100 µM (inactive) | 71.3 µM (inactive) | > 100 µM (inactive) | > 100 µM (inactive) | > 100 | > 100 µM (inactive)
5 | CC(C)N/C(=N\C#N)NS(=O)(=O)c1cnccc1Nc1ccc(Cl)cc1 | > 100 µM (inactive) | > 100 µM (inactive) | > 100 µM (inactive) | > 100 µM (inactive) | > 100 µM (inactive) | > 100 µM (inactive) | > 100 µM (inactive) | > 100 µM (inactive) | > 100 µM (inactive) |  | > 100 µM (inactive) | > 100 µM (inactive) | > 100 µM (inactive) | > 100 µM (inactive) | > 100 µM (inactive) | > 100 µM (inactive) |  | > 100 µM (inactive) | > 100 | > 100 µM (inactive)
6 | C=CC1(c2ccc3ccccc3c2)OCC(CC)(CC)CO1 | 16.4 µM (inactive) |  | 20.3 µM (inactive) | 37.6 µM (inactive) | 24.5 µM (inactive) | 20.8 µM (inactive) | 17.7 µM (inactive) | 15.8 µM (inactive) | 20 µM (inactive) | 18.4 µM (inactive) | 39.4 µM (inactive) | 33.9 µM (inactive) | 28.2 µM (inactive) | 20.2 µM (inactive) | 27.2 µM (inactive) | 27.4 µM (inactive) | 22.1 µM (inactive) | 18.2 µM (inactive) | 17.9 | 41 µM (inactive)
7 | O=C(CCCN1CCC2(CC1)CC(=O)N(N1CCCCCC1)C2=O)c1ccc(F)cc1 |  | 62.7 µM (inactive) | 16.4 µM (inactive) | 46.2 µM (inactive) | 52.7 µM (inactive) |  | > 100 µM (inactive) | 82.6 µM (inactive) | 23.6 µM (inactive) | 33.1 µM (inactive) | > 100 µM (inactive) | > 100 µM (inactive) | 52.8 µM (inactive) | 20.8 µM (inactive) | 26.7 µM (inactive) | 35.1 µM (inactive) |  | 36.1 µM (inactive) | > 100 | 40.6 µM (inactive)
8 | Cc1c(/N=N/c2ccccc2)c(C)n(C2OC(CO)C(O)C(O)C2O)c(=S)c1C#N (stereo unspecified) |  | 34.9 µM (inactive) | 32.7 µM (inactive) | 22.8 µM (inactive) |  | 33.5 µM (inactive) | 16.2 µM (inactive) | 45.3 µM (inactive) | 33 µM (inactive) | 22.6 µM (inactive) | 32.7 µM (inactive) | 35.5 µM (inactive) | 32.6 µM (inactive) | 31.6 µM (inactive) | 33.2 µM (inactive) | 25.5 µM (inactive) | 31.3 µM (inactive) | 20.8 µM (inactive) | 28.9 | 45.8 µM (inactive)
9 | COC1(OC)CC(CO)(COc2cc(Cl)nc(N)n2)C1 | > 100 µM (inactive) |  | > 100 µM (inactive) | > 100 µM (inactive) | > 100 µM (inactive) | > 100 µM (inactive) | > 100 µM (inactive) | > 100 µM (inactive) | > 100 µM (inactive) | > 100 µM (inactive) | > 100 µM (inactive) | > 100 µM (inactive) | > 100 µM (inactive) | > 100 µM (inactive) | > 100 µM (inactive) | > 100 µM (inactive) | > 100 µM (inactive) | > 100 µM (inactive) | > 100 | > 100 µM (inactive)
10 | CC12ON(P(=O)(c3ccccc3)c3ccccc3)C(C)(c3ccccc31)c1ccccc12 | > 100 µM (inactive) |  | > 100 µM (inactive) | 0.675 µM (active) | > 100 µM (inactive) | > 100 µM (inactive) | > 100 µM (inactive) | > 100 µM (inactive) | 81.7 µM (inactive) | > 100 µM (inactive) | > 100 µM (inactive) | > 100 µM (inactive) | > 100 µM (inactive) | > 100 µM (inactive) | > 100 µM (inactive) | > 100 µM (inactive) | 67.5 µM (inactive) | 32.7 µM (inactive) | > 100 | 21.5 µM (inactive)
11 | O=C1Nc2c(Cl)cc(Cl)cc2/C1=N/NC(=O)c1ccccc1O | 14.8 µM (inactive) | 16.5 µM (inactive) | 18.7 µM (inactive) | 19.1 µM (inactive) |  | 15.5 µM (inactive) | 12.7 µM (inactive) | 15.6 µM (inactive) | 12.2 µM (inactive) | 12.9 µM (inactive) | 15.5 µM (inactive) | 13.2 µM (inactive) | 13.6 µM (inactive) | 12.8 µM (inactive) | 17.9 µM (inactive) | 15.4 µM (inactive) | 13.5 µM (inactive) | 10 µM (inactive) | 14.8 | 13.4 µM (inactive)
12 | CC1=C(C)SC(=C2Sc3[n-]c(=O)[nH]c(=O)c3S2)S1.CCCC[N+](CCCC)(CCCC)CCCC | > 100 µM (inactive) | > 100 µM (inactive) | > 100 µM (inactive) | 42.5 µM (inactive) | 15.1 µM (inactive) | 98.2 µM (inactive) |  | > 100 µM (inactive) | > 100 µM (inactive) | 44.6 µM (inactive) | 39.2 µM (inactive) | > 100 µM (inactive) | 20.6 µM (inactive) | > 100 µM (inactive) | > 100 µM (inactive) | > 100 µM (inactive) | > 100 µM (inactive) | 95.1 µM (inactive) | > 100 | > 100 µM (inactive)
13 | COC(=O)C1=CO[C@@H](OC2OC(CO)C(O)C(O)C2O)[C@@H]2[C@H](C)[C@@H](O)[C@@H](O)[C@]12O (stereo partly specified) | > 100 µM (inactive) | > 100 µM (inactive) | > 100 µM (inactive) | > 100 µM (inactive) | > 100 µM (inactive) | > 100 µM (inactive) | > 100 µM (inactive) | 34.8 µM (inactive) | > 100 µM (inactive) | > 100 µM (inactive) | > 100 µM (inactive) | > 100 µM (inactive) | > 100 µM (inactive) | > 100 µM (inactive) | > 100 µM (inactive) | > 100 µM (inactive) |  | > 100 µM (inactive) | > 100 | 
14 | CC(C)(C)C(=O)N(C(=S)OCc1ccccn1)c1ccccc1 | 67.8 µM (inactive) | > 100 µM (inactive) | 27.6 µM (inactive) | 19.8 µM (inactive) |  | 26.4 µM (inactive) | 20.6 µM (inactive) | 31 µM (inactive) | 18.2 µM (inactive) | 23.9 µM (inactive) | > 100 µM (inactive) |  | 13.8 µM (inactive) | 35.8 µM (inactive) | > 100 µM (inactive) | 13.2 µM (inactive) |  | 18.8 µM (inactive) | 30.1 | 
15 | c1ccc2c(c1)OC(N1CCCC1)c1cnc(N3CCOCC3)nc1-2 (stereo unspecified) | 30.6 µM (inactive) | 18.7 µM (inactive) | 53.6 µM (inactive) | 10.8 µM (inactive) |  | > 100 µM (inactive) |  | 45.1 µM (inactive) | 21.7 µM (inactive) | 54.3 µM (inactive) | > 100 µM (inactive) | 57.7 µM (inactive) | 21.9 µM (inactive) | 59.8 µM (inactive) | 25.2 µM (inactive) | 57.5 µM (inactive) | 53.3 µM (inactive) | 32.9 µM (inactive) | 45.4 | 41.6 µM (inactive)
16 | COc1ccc(/C=C/C(=O)c2cc(CN(C)C)c(O)c(CN(C)C)c2)cc1 | 40.1 µM (inactive) | 19.7 µM (inactive) | 27.7 µM (inactive) | 36.6 µM (inactive) | 20.5 µM (inactive) | 17.7 µM (inactive) |  | 23.2 µM (inactive) | 31.7 µM (inactive) | 14.2 µM (inactive) | 54.2 µM (inactive) | 27.6 µM (inactive) | 25.2 µM (inactive) | 74 µM (inactive) | 16.5 µM (inactive) | 21.8 µM (inactive) | 18.7 µM (inactive) | 28.2 µM (inactive) | 40 | 
